Experimental data from patent US11485713B2, “Androgen receptor modulators and methods for their use” (ESSA Pharma, Inc., priority 2018, dated 2022).
Counter-ions that a name gives are not always drawn.

Experiments:
LNCaP ARE-Luc = assay: Luciferase assay in LNCaP cell lysates (LNCaP ARE-Luc); type: cell-based; conditions: Homo sapiens, Firefly Luciferase Assay System, read-out: LNCaP ARE-Luc % inhibition IC50 Ranges
Procedure: Lysates were thawed on ice then collected into V-bottom 96-well tissue culture plates. Lysates were centrifuged at 4° C. for 5 minutes at 4000 rpm. To measure luminescence of LNCaP cell lysates the Firefly Luciferase Assay System (Promega) was employed, according to manufacturer's protocol. Relative luminescence units (RLU) in cell lysates were detected for 10 seconds using Promega GoMax-Multi Detection Luminometer (Promega).
Statistical analyses were performed using GraphPad Prism (Version 6.01 for Windows; La Jolla, Calif., USA). Comparisons between treatment and control groups were compared using Two-Way ANOVA with post-hoc Dunnett's and Tukey's tests. Differences were considered statistically significant at P values less than 0.05. Densitometric quantification of relative AR levels was determined by Image.

[1] = Microsomal stability assay, MLM; type: in vitro ADME; conditions: mouse, pH 7.4, 1 μM test compound, 0.5 mg/mL liver microsomes protein, 37° C., 0-60 min, read-out: MLM +/− NADPH: Clint (μL/min/mg protein)
From the text: (§1) Microsomal Stability Assay: Microsomal stability assay is a widely used in vitro model to characterize the metabolic conversion by phase I enzymes, such as cytochrome P450 (CYP) enzymes. Since metabolism is known to be highly variable in different species, microsomal stability assay is commonly run in multiple species. Metabolic stability of testing compound can be evaluated using human, rat, mouse, or other animal liver or intestine microsomes to predict intrinsic clearance.
(§2) The assay was carried out in 96-well microtiter plates at 37° C. Reaction mixtures (25 μL) contained a final concentration of 1 μM test compound, 0.5 mg/mL liver microsomes protein, and 1 mM NADPH and/or 1 mM UDPGA (with alamethicin) in 100 mM potassium phosphate, pH 7.4 buffer with 3 mM MgCl2. The incubation was done with N=1, but duplicate incubation at each time point can be prepared if necessary. At each of the time points (for example, 0, 15, 30, and 60 minutes), 150 μL of quench solution (100% acetonitrile with 0.1% formic acid) with internal standard was transferred to each well. Besides the zero minute controls, mixtures containing the same components except the NADPH can also be prepared as the negative control. Verapamil was included as a positive control to verify assay performance. Plates were sealed, vortexed, and centrifuged at 4° C. for 15 minutes at 4000 rpm. The supernatant is transferred to fresh plates for LC/MS/MS analysis.
(§3) Summarized conditions: [Compound]=1 μM, [LM]=0.5 mg/mL, [NADPH]=1 mM and/or [UDPGA]=1 mM, Buffer=100 mM Potassium Phosphate, pH 7.4 with 3 mM MgCl2, Time=0, 15, 30, and 60 min, and Temperature=37° C.
(§4) All samples were analyzed on LC/MS/MS using an AB Sciex API 4000 instrument, coupled to a Shimadzu LC-20AD LC Pump system. Analytical samples were separated using a Waters Atlantis T3 dC18 reverse phase HPLC column (20 mm×2.1 mm) at a flow rate of 0.5 mL/min. The mobile phase consisted of 0.1% formic acid in water (solvent A) and 0.1% formic acid in 100% acetonitrile (solvent B).
(§5) The extent of metabolism is calculated as the disappearance of the test compound, compared to the 0-min time incubation. Initial rates are calculated for the compound concentration and used to determine half-life (t½) values and subsequently, the intrinsic clearance (Clint). Clint=(0.693)(1/t½ (min))(g of liver/kg of body weight)(mL incubation/mg of microsomal protein)(45 mg of microsomal protein/g of liver weight)

[2] = Microsomal stability assay, HLM; type: in vitro ADME; conditions: human, pH 7.4, 1 μM test compound, 0.5 mg/mL liver microsomes protein, 37° C., 0-60 min, read-out: HLM +/− NADPH: Clint (μL/min/mg protein)
From the text: as §1, §2, §3, §4, §5

Row | IC50 (LNCaP ARE-Luc) | microsomal CLint at 1 μM [1] | microsomal CLint at 1 μM [2] | Structure (SMILES)
1 | < 0.1 µM | ≥ 48 µL/min/mg | ≥ 48 µL/min/mg | Cc1cc(C(C)(C)c2ccc(OCC(=O)CNS(C)(=O)=O)cc2)ccc1OCCCCl [Compound A1]
2 | 0.1 to 0.25 µM | ≥ 48 µL/min/mg | ≥ 48 µL/min/mg | Cc1cc(OCCCCl)ccc1C(C)(C)c1ccc(OCC(=O)CNS(C)(=O)=O)cc1 [Compound A2]
3 | < 0.1 µM | ≥ 48 µL/min/mg | ≥ 48 µL/min/mg | CC(C)(c1ccc(OCC(=O)CNS(C)(=O)=O)cc1)c1ccc(OCCCCl)c(Cl)c1 [Compound A5]
4 | ≥ 0.25 µM | ≥ 48 µL/min/mg | ≥ 48 µL/min/mg | Cc1cc(C(C)(C)c2ccc(OCCCCl)cc2)ccc1OCC(=O)CNS(C)(=O)=O [Compound A9]
5 | ≥ 0.25 µM | ≥ 48 µL/min/mg | ≥ 48 µL/min/mg | CC(C)(c1ccc(OCCCCl)cc1)c1ccc(OCC(=O)CNS(C)(=O)=O)c(Cl)c1 [Compound A13]
6 | ≥ 0.25 µM | ≥ 48 µL/min/mg | ≥ 48 µL/min/mg | CS(=O)(=O)NCC(=O)COc1ccc(Cc2cc(Cl)c(OCCCCl)c(Cl)c2)cc1 [Compound A21]
7 | ≥ 0.25 µM | ≥ 48 µL/min/mg | ≥ 48 µL/min/mg | CN(c1ccc(OCC(=O)CNS(C)(=O)=O)cc1)c1cc(Cl)c(OCCCCl)c(Cl)c1 [Compound A23]
8 | ≥ 0.25 µM | ≥ 48 µL/min/mg | ≥ 48 µL/min/mg | CS(=O)(=O)NCC(=O)COc1ccc(-c2cc(Cl)c(OCC(O)CCl)c(Cl)c2)cc1 (stereo not shown) [Compound A25]
9 | ≥ 0.25 µM | 12 to 48 µL/min/mg | ≥ 48 µL/min/mg | CC(C)(c1ccc(NCC(=O)CNS(C)(=O)=O)cc1)c1cc(Cl)c(OCCCCl)c(Cl)c1 [Compound A27]
10 | ≥ 0.25 µM | 12 to 48 µL/min/mg | 12 to 48 µL/min/mg | CN(CC(=O)CNS(C)(=O)=O)c1ccc(C(C)(C)c2cc(Cl)c(OCCCCl)c(Cl)c2)cc1 [Compound A28]
11 | ≥ 0.25 µM | < 12 µL/min/mg | 12 to 48 µL/min/mg | CC(C)NC(=O)COc1ccc(C(C)(C)c2cc(Cl)c(OCCCCl)c(Cl)c2)cc1 [Compound A30]
12 | ≥ 0.25 µM | ≥ 48 µL/min/mg | ≥ 48 µL/min/mg | CC(C)(c1ccc(OCC(=O)CNS(C)(=O)=O)cc1)c1cc(Cl)c(CCCCCl)c(Cl)c1 [Compound A34]
13 | ≥ 0.25 µM | ≥ 48 µL/min/mg | ≥ 48 µL/min/mg | CC(C)(c1ccc(OCC(=O)CNS(C)(=O)=O)cc1)c1cc(Cl)c(OCc2cccc(Cl)c2)c(Cl)c1 [Compound A37]
14 | ≥ 0.25 µM | < 12 µL/min/mg | 12 to 48 µL/min/mg | CC(C)(c1ccc(OCC(N)=O)cc1)c1cc(Cl)c(OCCCCl)c(Cl)c1 [Compound A42]
15 | ≥ 0.25 µM | ≥ 48 µL/min/mg | ≥ 48 µL/min/mg | CS(=O)(=O)NCC(=O)COc1ccccc1Cc1cc(Cl)c(OCCCCl)c(Cl)c1 [Compound A49]
16 | ≥ 0.25 µM | – | 12 to 48 µL/min/mg | CS(=O)(=O)NCC(=O)COc1ccc(-c2cc(Cl)c(OCCCCl)c(Cl)c2)cc1 [Compound A73, N-(3-((3′,5′-dichloro-4′-(3-chloropropoxy)-[1,1′-biphenyl]-4-yl)oxy)-2-oxopropyl)methanesulfonamide]
17 | 0.1 to 0.25 µM | – | ≥ 48 µL/min/mg | CS(=O)(=O)NCC(=O)COc1ccc(CCc2cc(Cl)c(OCC(O)CCl)c(Cl)c2)cc1 (stereo not shown) [Compound A75, N-(3-(4-(3,5-dichloro-4-(3-chloro-2-hydroxypropoxy)phenethyl)phenoxy)-2-oxopropyl)methanesulfonamide]
18 | ≥ 0.25 µM | – | 12 to 48 µL/min/mg | CS(=O)(=O)NCC(=O)CCOc1ccc(-c2cc(Cl)c(OCCCCl)c(Cl)c2)cc1 [Compound A76]
19 | < 0.1 µM | 12 to 48 µL/min/mg | < 12 µL/min/mg | CC(C)(c1cccc(OCC(=O)CNS(C)(=O)=O)c1)c1ccc(Cl)c(OCCCCl)c1Cl [Compound A77]
20 | ≥ 0.25 µM | – | ≥ 48 µL/min/mg | CC(C)(c1ccc(OCC(=O)CNS(C)(=O)=O)cc1)c1cc(Cl)c(OCc2ccccc2Cl)c(Cl)c1 [Compound A79]
21 | ≥ 0.25 µM | – | 12 to 48 µL/min/mg | CC(C)(c1ccc(OCC(=O)NNS(C)(=O)=O)cc1)c1cc(Cl)c(OCCCCl)c(Cl)c1 [Compound A80]
22 | ≥ 0.25 µM | 12 to 48 µL/min/mg | 12 to 48 µL/min/mg | CN(CC(=O)CNS(C)(=O)=O)c1ccc(C(C)(C)c2cc(Cl)c(OCCCl)c(Cl)c2)cc1 [Compound A81, N-(3-((4-(2-(3,5-dichloro-4-(2-chloroethoxy)phenyl)propan-2-yl)phenyl) (methyl)amino)-2-oxopropyl)methanesulfonamide hydrochloride]
23 | ≥ 0.25 µM | – | 12 to 48 µL/min/mg | CC(C)(c1ccc(C(=O)CCCNS(C)(=O)=O)cc1)c1cc(Cl)c(OCCCCl)c(Cl)c1 [Compound A84]
24 | ≥ 0.25 µM | – | ≥ 48 µL/min/mg | CC(=O)C(=O)Nc1ccc(C(C)(C)c2cc(Cl)c(OCCCCl)c(Cl)c2)cc1 [Compound A85]
25 | ≥ 0.25 µM | – | < 12 µL/min/mg | CC(C)(c1ccc(OCC(=O)C(F)(F)F)cc1)c1cc(Cl)c(OCCCCl)c(Cl)c1 [Compound A91, 3-(4-(2-(3,5-dichloro-4-(3-chloropropoxy)phenyl)propan-2-yl)phenoxy)-1,1,1-trifluoropropan-2-one]
26 | ≥ 0.25 µM | – | < 12 µL/min/mg | CC(C)(c1ccc(NC(=O)C(=O)C(F)(F)F)cc1)c1cc(Cl)c(OCCCCl)c(Cl)c1 [Compound A93]
27 | ≥ 0.25 µM | – | ≥ 48 µL/min/mg | CC(C)(c1ccc(OC(F)(F)C(=O)CCNS(C)(=O)=O)cc1)c1cc(Cl)c(OCCCCl)c(Cl)c1 [Compound A94, N-(4-(4-(2-(3,5-dichloro-4-(3-chloropropoxy)phenyl)propan-2-yl)phenoxy)-4,4-difluoro-3-oxobutyl)methanesulfonamide]
28 | ≥ 0.25 µM | – | < 12 µL/min/mg | CC(O)(CCl)COc1c(Cl)cc(C(C)(C)c2ccc(NC(=O)C(=O)C(F)(F)F)cc2)cc1Cl (stereo not shown) [Compound A95]
